Test results taken from patent US20250197425A1, “2,6,9-TRISUBSTITUTED PURINES” (ASTRAZENECA AB, priority 2022, published 2025).
Values after ≈ are worked out from the molar mass of the structure shown. Like-named read-outs stand apart in the source and are kept apart here.

Experiments:
[1] = test system: POLR2A Ser2 phosphorylation (CDK9); assay: POLR2A Ser2 phosphorylation imaging assay in MCF-7 cells; type: cell-based; settings: MCF-7 cells, 2 hours, read-out: POLR2A Ser2 phosphorylation IC50
Outline: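 MCF-7 cells were fixed, permeabilised and immunostained for POLR2A phospho-Ser2, then imaged by high-content microscopy. Levels were normalised to controls and IC50 values derived.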

MCF-7 cells = assay: Cellular proliferation EdU assay, MCF-7; type: cell-based; settings: EdU assay, two days, read-out: MCF-7 IC50
Outline: (§1)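 MCF-7 (800 cells/well) and OVCAR3 (1200 cells/well) in RPMI with 10% FBS exposed to compounds for two days at 37 °C.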

OVCAR3 cells = assay: Cellular proliferation EdU assay, OVCAR3; type: cell-based, human; settings: EdU assay, two days, read-out: OVCAR3 IC50
Outline: as §1

[2] = target: 379 non-CDK kinase (or non-CDK kinase-complex) targets; assay: Kinase profiling (SelectScreen, ThermoFisher); type: biochemical; settings: compared with Compound 6
From the text: Test compounds were profiled against a broad panel of kinases at ThermoFisher Scientific using the SelectScreen Kinase Profiling Services. Each kinase assay used one of the following assay technology protocols: • 1) Z-LYTE™ Screening Protocol and Assay Conditions (Revised 23 Jan. 2018 version) available at http://assets.thermofisher.com/TFS-Assets/BID/Methods-&-Protocols/20180123_SSBK_Customer_Protocol_and_Assay_Conditions.pdf; • 2) Adapta™ Screening Protocol and Assay Conditions (Revised 23 Jan. 2018 version) available at http://assets.thermofisher.com/TFS-Assets/BID/Methods-&-Protocols/20180123_SSBK_Adapta_Customer_Protocol_and_Assay_Conditions.pdf; or • 3) LanthaScreen™ Eu Kinase Binding Assay Screening Protocol and Assay Conditions (Revised 23 Jan. 2018 version) available at http://assets.thermofisher.com/TFS-Assets/BID/Methods-&-Protocols/20180123_SSBK_LanthaScreen_Binding_Customer_Protocol_and_Assay_Co nditions.pdf.

CDK2:CCNE1 = CDK2:CCNE1 (Homo sapiens (Human), UniProt P24941); assay: NanoBRET assay in MCF-7 cells, CDK2; type: cell-based; settings: transfected MCF-7 cells, 2 hours, n = 1 or average
Outline: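 In live MCF-7 cells, compound added followed by NanoBRET TE Tracer K-9 (stock 200 μM) for CDK2, 2 h at 37° C, 5% CO2.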

CDK1:CCNB1 = CDK1:CCNB1 (Homo sapiens (Human), UniProt P06493); assay: NanoBRET assay in MCF-7 cells, CDK1; type: cell-based; settings: NanoBRET, transfected MCF-7 cells, 2 hours; n = 1 or average; read-out: CDK1 IC50
Outline: (§2)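 Transiently transfected MCF-7 cells expressing CDK1:CCNB1 or CDK4:CCND1 were treated with compound plus tracer (CDK1: Tracer K-9, 400 μM stock; CDK4: Tracer K-7, 100 μM stock) for 2 h at 37 °C.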

CDK4:CCND1 = CDK4:CCND1 (Homo sapiens (Human), UniProt P11802); assay: NanoBRET assay in MCF-7 cells, CDK4; type: cell-based; settings: NanoBRET, transfected MCF-7 cells, 2 hours; n = 1 or average; read-out: CDK4 IC50
Outline: as §2

[3] = test system: NPM phosphorylation (Thr199, CDK2-cyclin E complex); assay: NPM phosphorylation imaging assay in MCF-7 cells; type: cell-based; settings: 4N DNA cells
Outline: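 MCF-7 cells were fixed, permeabilised and immunostained, then imaged for phospho-NPM (Thr199), a CDK2-cyclin E site. Analysis was gated on 4N-DNA cells by Hoechst staining. Signals were normalised to controls and fitted for IC50.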

[4] = CLint assessment in human liver microsomes (HLM); type: in vitro ADME; settings: 1 μM
Outline: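 Microsomes preincubated 8 min with NADPH, then compound added and incubated 30 min at 37° C. Remaining compound measured by LC-MS/MS. t1/2 and CLint calculated, with CLint scaled to incubation volume per mg microsomal protein.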

[5] = Aqueous thermodynamic solubility, shake-flask; type: physicochemical; settings: phosphate buffer 0.1 M, pH 7.4, 24 hours
Outline: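 Dried compound (after DMSO evaporation) was equilibrated in 0.1 M phosphate buffer pH 7.4 with stirring for 24 h at 25° C. Undissolved material was removed by double centrifugation, and the supernatant was diluted in water and quantified by UPLC/MS/MS.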

[6] = aqueous phosphate buffer, 25 °C, pH 7.4, aqueous buffer, thermodynamic from solid

Sequence of CDK4:CCND1 (P11802 whole entry): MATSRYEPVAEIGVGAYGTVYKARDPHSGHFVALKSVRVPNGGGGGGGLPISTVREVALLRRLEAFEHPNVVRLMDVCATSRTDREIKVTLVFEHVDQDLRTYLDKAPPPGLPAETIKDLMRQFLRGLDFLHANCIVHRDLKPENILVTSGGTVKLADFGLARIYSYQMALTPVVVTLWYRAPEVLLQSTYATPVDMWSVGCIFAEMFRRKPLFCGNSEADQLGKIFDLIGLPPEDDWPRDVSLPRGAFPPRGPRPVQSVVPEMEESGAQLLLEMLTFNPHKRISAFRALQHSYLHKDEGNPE
Sequence of CDK4:CCND1 (P24385 whole entry partner): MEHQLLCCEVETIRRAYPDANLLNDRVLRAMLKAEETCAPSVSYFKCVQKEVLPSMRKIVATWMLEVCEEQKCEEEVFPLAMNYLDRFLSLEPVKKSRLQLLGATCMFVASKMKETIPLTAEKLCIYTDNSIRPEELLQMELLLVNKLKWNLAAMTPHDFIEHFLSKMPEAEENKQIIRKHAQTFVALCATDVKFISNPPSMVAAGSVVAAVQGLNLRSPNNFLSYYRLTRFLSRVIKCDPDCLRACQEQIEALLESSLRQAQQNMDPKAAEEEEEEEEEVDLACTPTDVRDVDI
Sequence of CDK1:CCNB1 (P06493 whole entry): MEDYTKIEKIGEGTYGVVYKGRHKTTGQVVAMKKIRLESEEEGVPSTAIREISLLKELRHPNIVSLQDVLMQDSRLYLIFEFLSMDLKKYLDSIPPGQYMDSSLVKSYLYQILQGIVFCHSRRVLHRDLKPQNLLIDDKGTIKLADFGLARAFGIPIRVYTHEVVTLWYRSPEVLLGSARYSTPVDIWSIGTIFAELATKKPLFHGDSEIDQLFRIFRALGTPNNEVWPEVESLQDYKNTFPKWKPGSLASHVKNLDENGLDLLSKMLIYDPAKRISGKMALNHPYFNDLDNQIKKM
Sequence of CDK1:CCNB1 (P14635 whole entry partner): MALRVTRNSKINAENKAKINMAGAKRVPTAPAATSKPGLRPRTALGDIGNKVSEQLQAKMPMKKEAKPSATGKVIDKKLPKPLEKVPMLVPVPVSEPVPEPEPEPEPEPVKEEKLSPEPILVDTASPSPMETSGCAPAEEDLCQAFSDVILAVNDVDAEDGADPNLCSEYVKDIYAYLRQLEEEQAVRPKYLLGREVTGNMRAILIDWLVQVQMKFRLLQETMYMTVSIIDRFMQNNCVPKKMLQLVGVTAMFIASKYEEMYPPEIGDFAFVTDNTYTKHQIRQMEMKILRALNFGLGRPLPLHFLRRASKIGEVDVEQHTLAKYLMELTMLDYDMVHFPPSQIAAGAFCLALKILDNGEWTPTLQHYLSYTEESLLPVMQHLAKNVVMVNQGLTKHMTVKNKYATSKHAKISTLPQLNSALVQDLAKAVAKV

Row | SMILES | IC50 ([1]; Homo sapiens, MCF7, 2 h) [nM] | IC50 (MCF-7 cells; Homo sapiens, MCF7, 48 h) [nM] | IC50 (OVCAR3 cells; Homo sapiens, OVCAR-3, 48 h) [nM] | kinase inhibition profile [2] | IC50 (CDK2:CCNE1) [nM] | IC50 (CDK1:CCNB1) [nM] | IC50 (CDK4:CCND1) [nM] | IC50 ([3]; 2 hours) [nM] | IC50 (MCF-7 cells) [nM] | IC50 (OVCAR3 cells) [nM] | HLM CLint [4] [µL/min/mg] | solubility at 24 h ([5]; 25° C.) [µM] | IC50 ([3]; Homo sapiens, MCF7, 2 h) [nM] | solubility at 24 h [5, 6] [µM] | IC50 [1] [nM] | IC50 ([3]; Homo sapiens, MCF7, 2 hours) [nM]
1 | CCn1cnc2c(N[C@H]3CCN(S(C)(=O)=O)C3)nc(N[C@@H](CO)C3CC3)nc21 [Example 39, (R)-2-cyclopropyl-2-((9-ethyl-6-(((S)-1-(methylsulfonyl)pyrrolidin-3-yl)amino)-9H-purin-2-yl)amino)ethanol] | > 30000 | 658 | 288 | broadly similar kinase inhibition profiles to Compound 6 | – | – | – | – | – | – | – | – | – | – | – | –
2 | CCn1cnc2c(N[C@H]3CCN(S(C)(=O)=O)C3)nc(N[C@@H](CO)C(C)C)nc21 [Example 28, (R)-2-((9-ethyl-6-(((S)-1-(methylsulfonyl)pyrrolidin-3-yl)amino)-9H-purin-2-yl)amino)-3-methylbutan-1-ol] | > 30000 | 699 | 186 | broadly similar kinase inhibition profiles to Compound 6 | – | – | – | – | – | – | – | – | – | – | – | –
3 | CCn1cnc2c(N[C@H]3CCN(S(=O)(=O)NC)C3)nc(N[C@@H](C)[C@@H](O)C(F)(F)F)nc21 (single isomer, unassigned) [Example 49, (S)-3-((9-ethyl-2-(((2R*,3S*)-4,4,4-trifluoro-3-hydroxybutan-2-yl)amino)-9H-purin-6-yl)amino)-N-methylpyrrolidine-1-sulfonamide] | 20200 | – | – | – | 13 | 907 | 4400 | 144 | 775 | 383 | 19.5 | 120 (≈ 56 µg/mL) | – | – | – | –
4 | CC[C@@H](CO)Nc1nc(N[C@H]2CCN(S(=O)(=O)NC)C2)c2ncn(CC)c2n1 [Example 48, (S)-3-((9-ethyl-2-(((S)-1-hydroxybutan-2-yl)amino)-9H-purin-6-yl)-amino)-N-methylpyrrolidine-1-sulfonamide] | > 30000 | 3330 | 2350 | – | 123 | 5550 | > 23800 | – | – | – | 13.3 | – | 1300 | > 1000 | – | –
5 | CCn1cnc2c(N[C@H]3CCN(S(=O)(=O)NC)C3)nc(N[C@@H](C)[C@@H](O)C(F)(F)F)nc21 (single isomer, unassigned) [Example 50, (S)-3-((9-ethyl-2-(((2R*,3S*)-4,4,4-trifluoro-3-hydroxybutan-2-yl)amino)-9H-purin-6-yl)amino)-N-methylpyrrolidine-1-sulfonamide] | – | – | – | – | 64 | 2350 | 14200 | 412 | 2760 | 1220 | 36.3 | 23.1 (≈ 10.8 µg/mL) | – | – | > 30000 | –
6 | CCn1cnc2c(N[C@H]3CCN(S(=O)(=O)CF)C3)nc(N[C@@H](CO)C(C)C)nc21 [Example 43, (R)-2-((9-ethyl-6-(((S)-1-(fluoromethylsulfonyl)pyrrolidin-3-yl)-amino)-9H-purin-2-yl)amino)-3-methylbutan-1-ol] | > 30000 | 328 | 291 | – | 11 | 557 | 5200 | – | – | – | 148 | – | 150 | 97.2 (≈ 41.7 µg/mL) | – | –
7 | CCn1cnc2c(N[C@H]3CCN(S(=O)(=O)C4CC4)C3)nc(N[C@@H](CO)C(C)C)nc21 [Example 41, (R)-2-((6-(((S)-1-(cyclopropylsulfonyl)pyrrolidin-3-yl)amino)-9-ethyl-9H-purin-2-yl)amino)-3-methylbutan-1-ol] | > 30000 | 746 | 327 | – | 19 | 663 | 7700 | – | – | – | 177 | – | 182 | 39.2 (≈ 17.2 µg/mL) | – | –
8 | CC(C)[C@H](CO)Nc1nc(N[C@H]2C[C@H](C)N(S(C)(=O)=O)C2)c2ncn(C(C)C)c2n1 [Example 35, (R)-2-((9-isopropyl-6-(((3S,5S)-5-methyl-1-(methylsulfonyl)-pyrrolidin-3-yl)amino)-9H-purin-2-yl)amino)-3-methylbutan-1-ol] | > 30000 | 3330 | 1620 | – | 52 | 6080 | 11200 | – | – | – | >300 | – | – | 26.4 (≈ 11.6 µg/mL) | – | 1220
9 | CCNS(=O)(=O)N1CC[C@H](Nc2cc(N[C@@H](CC)[C@@H](C)O)nc3c2ncn3CC)C1 [Example 60, (S)—N-ethyl-3-((3-ethyl-5-(((2R,3S)-2-hydroxypentan-3-yl)amino)-3H-imidazo[4,5-b]pyridin-7-yl)amino)pyrrolidine-1-sulfonamide] | 6100 | 637 | 89 | – | 14 | 426 | 2500 | – | – | – | 65.6 | – | 64 | 51.3 (≈ 22.6 µg/mL) | – | –
10 | CCNS(=O)(=O)N1C[C@@H](F)[C@H](Nc2nc(N[C@@H](CO)C3CC3)nc3c2ncn3C)C1 (relative stereo) [Example 26, (3R*,4R*)-3-((2-(((R)-1-cyclopropyl-2-hydroxyethyl)amino)-9-methyl-9H-purin-6-yl)amino)-N-ethyl-4-fluoropyrrolidine-1-sulfonamide] | 11400 | 960 | 496 | – | 39 | 651 | 8100 | – | – | – | 15.2 | – | 435 | 101 (≈ 44.7 µg/mL) | – | –
11 | CCn1cnc2c(N[C@H]3CCN(S(=O)(=O)NC)C3)nc(N[C@@H]3c4ccccc4C[C@@H]3O)nc21 [Example 51, (S)-3-((9-ethyl-2-(((1R,2S)-2-hydroxy-2,3-dihydro-1H-inden-1-yl)amino)-9H-purin-6-yl)amino)-N-methylpyrrolidine-1-sulfonamide] | 7400 | 536 | 324 | – | 32 | 532 | 1900 | – | – | – | 212 | – | 157 | 35 (≈ 16.5 µg/mL) | – | –
